Columns and labels:
[1] = test system: HIV pseudotyped virus (NL4-3 provirus, luciferase reporter), WT; assay: PSV (pseudotyped virus) assay, WT; conditions: Human immunodeficiency virus 1, NL43, 72 h, read-out: WT IC50
Method: A pseudotyped virus assay (PSV) was used to assess the potency of the HIV inhibitor.
The PSV assay was performed by using U373 cells stably transformed to express human CD4, the primary receptor for HIV entry and either human CXCR4 or human CCR5 which are the co-receptors required for HIV entry as target cells for infection. […] This dose-range was applied to U373 cells and the pre-made pseudotyped virus added. The amount of luciferase signal produced after 3 days of culture was used to reflect the level of pseudotyped virus infection. An IC50, or the concentration of inhibitor required to reduce PSV infection by 50% from the infection containing no inhibitor was calculated. […] IC50 values were determined from a 10 point dose response curve using 3-4-fold serial dilution for each compound, which spans a concentration range>1000 fold.
These values are plotted against the molar compound concentrations using the standard four parameter logistic equation: y=((Vmax*x^n)/(K^n+x^n))+Y2

[2] = test system: HIV pseudotyped virus, M184V; format: cell-based; conditions: U373 cells (CD4, CXCR4 or CCR5), luciferase signal after 3 days

| Compound | IC50 [1] [nM] | IC50 [2] [nM] |
| --- | --- | --- |
| C#C[C@]1(COC(=O)CCCC)O[C@@H](n2cnc3c(N)nc(F)nc32)C[C@@H]1OC(=O)CCCCCC [Example 20, (2R,3S,5R)-5-(6-amino-2-fluoro-9H-purin-9-yl)-2-ethynyl-2-((pentanoyloxy)methyl)tetrahydrofuran-3-yl Heptanoate] | 5 | 25 |
| C#C[C@]1(COC(=O)CCCCCCCCC(=O)O)O[C@@H](n2cnc3c(N)nc(F)nc32)C[C@@H]1O [Example 9, 10-(((2R,3S,5R)-5-(6-amino-2-fluoro-9H-purin-9-yl)-2-ethynyl-3-hydroxytetrahydrofuran-2-yl)methoxy)-10-oxodecanoic Acid] | 35 | 167 |
| C#C[C@]1(COC(=O)c2ccccc2)O[C@@H](n2cnc3c(N)nc(F)nc32)C[C@@H]1O [Example 2, ((2R,3S,5R)-5-(6-amino-2-fluoro-9H-purin-9-yl)-2-ethynyl-3-hydroxytetrahydrofuran-2-yl)methyl Benzoate] | 3 | 13 |
| C#C[C@@]12COC(=O)CCCCCCCCCCCCC(=O)O[C@H]1C[C@H](n1cnc3c(N)nc(F)nc31)O2 [Example 33, (2R,3aS,20aR)-2-(6-amino-2-fluoro-9H-purin-9-yl)-20a-ethynylhexadecahydro-2H-furo[3,2-b][1,5]dioxacyclononadecine-5,18-dione] | 17 | 86 |
| C#C[C@]1(COC(=O)CCCC)O[C@@H](n2cnc3c(N)nc(F)nc32)C[C@@H]1OC(=O)CCCCCCCC [Example 22, (2R,3S,5R)-5-(6-amino-2-fluoro-9H-purin-9-yl)-2-ethynyl-2-((pentanoyloxy)methyl)tetrahydrofuran-3-yl Nonanoate] | 7 | 35 |
| C#C[C@]1(COC(=O)C(CCC)CCC)O[C@@H](n2cnc3c(N)nc(F)nc32)C[C@@H]1OC(=O)CCCCCCCCCCC [Example 29, (2R,3S,5R)-5-(6-amino-2-fluoro-9H-purin-9-yl)-2-ethynyl-2-(((2-propylpentanoyl)oxy)methyl)tetrahydrofuran-3-yl Dodecanoate] | 238 | 1350 |
| C#C[C@]1(COC(=O)CCCC)O[C@@H](n2cnc3c(N)nc(F)nc32)C[C@@H]1OC(=O)CCCCCCCCCC [Example 21, (2R,3S,5R)-5-(6-amino-2-fluoro-9H-purin-9-yl)-2-ethynyl-2-((pentanoyloxy)methyl)tetrahydrofuran-3-yl Undecanoate] | 7 | 44 |
| C#C[C@]1(COC(=O)CCCC)O[C@@H](n2cnc3c(NC(=O)CCCCCCC)nc(F)nc32)C[C@@H]1O [Example 26, ((2R,3S,5R)-2-ethynyl-5-(2-fluoro-6-octanamido-9H-purin-9-yl)-3-hydroxytetrahydrofuran-2-yl)methyl Pentanoate] | 7 | 28 |
| C#C[C@]1(COC(=O)C(CCC)CCC)O[C@@H](n2cnc3c(N)nc(F)nc32)C[C@@H]1OC(=O)CCC [Example 30, ((2R,3S,5R)-5-(6-amino-2-fluoro-9H-purin-9-yl)-3-(butyryloxy)-2-ethynyltetrahydrofuran-2-yl)methyl 2-propylpentanoate] | 334 | 1500 |
| C#C[C@]1(COC(=O)CCCC(=O)OC(COC(=O)CCCCCC)COC(=O)CCCCCC)O[C@@H](n2cnc3c(N)nc(F)nc32)C[C@@H]1O [Example 12, ((2R,3S,5R)-5-(6-amino-2-fluoro-9H-purin-9-yl)-2-ethynyl-3-hydroxytetrahydrofuran-2-yl)methyl (1,3-bis(heptanoyloxy)propan-2-yl) glutarate] | 34 | 151 |
| C#C[C@]1(COC(=O)[C@H](C)NC(=O)CCCCCC)O[C@@H](n2cnc3c(N)nc(F)nc32)C[C@@H]1O [Example 36, ((2R,3S,5R)-5-(6-amino-2-fluoro-9H-purin-9-yl)-2-ethynyl-3-hydroxytetrahydrofuran-2-yl)methyl heptanoyl-L-alaninate] | 4 | 21 |
| C#C[C@]1(COC(=O)COCCOCCOC)O[C@@H](n2cnc3c(N)nc(F)nc32)C[C@@H]1O [Example 7, ((2R,3S,5R)-5-(6-amino-2-fluoro-9H-purin-9-yl)-2-ethynyl-3-hydroxytetrahydrofuran-2-yl)methyl 2-(2-(2-methoxyethoxy)ethoxy)acetate] | 4 | 24 |
| C#C[C@]1(COC(=O)CNC(=O)CCCCCCCCCCCCC)O[C@@H](n2cnc3c(N)nc(F)nc32)C[C@@H]1O [Example 35, ((2R,3S,5R)-5-(6-amino-2-fluoro-9H-purin-9-yl)-2-ethynyl-3-hydroxytetrahydrofuran-2-yl)methyl Tetradecanoylglycinate] | 1 | 9 |
| C#C[C@]1(COC(=O)CCCC(=O)OC(COC(=O)CCCCCCCCCCCCC)COC(=O)CCCCCCCCCCCCC)O[C@@H](n2cnc3c(N)nc(F)nc32)C[C@@H]1O [Example 13, ((2R,3S,5R)-5-(6-amino-2-fluoro-9H-purin-9-yl)-2-ethynyl-3-hydroxytetrahydrofuran-2-yl)methyl 1,3-bis(tetradecanoyloxy)propan-2-yl) glutarate] | 508 | 3610 |
| C#C[C@]1(COC(=O)[C@H]2CC[C@H](C(C)(C)C)CC2)O[C@@H](n2cnc3c(N)nc(F)nc32)C[C@@H]1O [Example 4, ((2R,3S,5R)-5-(6-amino-2-fluoro-9H-purin-9-yl)-2-ethynyl-3-hydroxytetrahydrofuran-2-yl)methyl trans-4-(tert-butyl)cyclohexane-1 carboxylate] | 3 | 17 |
| C#C[C@]1(COC(=O)CCCC)O[C@@H](n2cnc3c(NC(=O)CCCCCCCCCCC)nc(F)nc32)C[C@@H]1O [Example 28, ((2R,3S,5R)-5-(6-dodecanamido-2-fluoro-9H-purin-9-yl)-2-ethynyl-3-hydroxytetrahydrofuran-2-yl)methyl Pentanoate] | 6 | 26 |
| C#C[C@]1(COC(=O)CCCC)O[C@@H](n2cnc3c(N)nc(F)nc32)C[C@@H]1OC(=O)CC [Example 24, ((2R,3S,5R)-5-(6-amino-2-fluoro-9H-purin-9-yl)-2-ethynyl-3-(propionyloxy)tetrahydrofuran-2-yl)methyl Pentanoate] | 66 | 351 |
| C#C[C@]1(COC(=O)CCCC)O[C@@H](n2cnc3c(NC(=O)CCC)nc(F)nc32)C[C@@H]1O [Example 25, ((2R,3S,5R)-5-(6-butyramido-2-fluoro-9H-purin-9-yl)-2-ethynyl-3-hydroxytetrahydrofuran-2-yl)methyl Pentanoate] | 21 | 186 |
| C#C[C@]1(COC(=O)CCCC)O[C@@H](n2cnc3c(N)nc(F)nc32)C[C@@H]1OC(=O)CCCC [Example 23, (2R,3S,5R)-5-(6-amino-2-fluoro-9H-purin-9-yl)-2-ethynyl-2-((pentanoyloxy)methyl)tetrahydrofuran-3-yl Pentanoate] | 11 | 68 |
| C#C[C@]1(COC(=O)CNC(=O)CCCCCC)O[C@@H](n2cnc3c(N)nc(F)nc32)C[C@@H]1O [Example 34, ((2R,3S,5R)-5-(6-amino-2-fluoro-9H-purin-9-yl)-2-ethynyl-3-hydroxytetrahydrofuran-2-yl)methyl Heptanoylglycinate] | 4 | 25 |
| C#C[C@]1(COC(=O)COCCOC)O[C@@H](n2cnc3c(N)nc(F)nc32)C[C@@H]1O [Example 6, ((2R,3S,5R)-5-(6-amino-2-fluoro-9H-purin-9-yl)-2-ethynyl-3-hydroxytetrahydrofuran-2-yl)methyl 2-(2-methoxyethoxy)acetate] | 4 | 25 |
| C#C[C@]1(COC(=O)CCCCCCCCCCCCCCCCCCC(=O)O)O[C@@H](n2cnc3c(N)nc(F)nc32)C[C@@H]1O [Example 11, 20-(((2R,3S,5R)-5-(6-amino-2-fluoro-9H-purin-9-yl)-2-ethynyl-3-hydroxytetrahydrofuran-2-yl)methoxy)-20-oxoicosanoic Acid] | 8 | 37 |
| C#C[C@]1(COC(=O)C2CCCCC2)O[C@@H](n2cnc3c(N)nc(F)nc32)C[C@@H]1O [Example 1, ((2R,3S,5R)-5-(6-amino-2-fluoro-9H-purin-9-yl)-2-ethynyl-3-hydroxytetrahydrofuran-2-yl)methyl Cyclohexanecarboxylate] | 2 | 8 |
| C#C[C@]1(COC(=O)CCCCCCCCCCCCC(=O)O)O[C@@H](n2cnc3c(N)nc(F)nc32)C[C@@H]1O [Example 10, 14-(((2R,3S,5R)-5-(6-amino-2-fluoro-9H-purin-9-yl)-2-ethynyl-3-hydroxytetrahydrofuran-2-yl)methoxy)-14-oxotetradecanoic Acid] | 9 | 44 |
| C#C[C@]1(COC(=O)COCCOCCCC)O[C@@H](n2cnc3c(N)nc(F)nc32)C[C@@H]1O [Example 8, ((2R,3S,5R)-5-(6-amino-2-fluoro-9H-purin-9-yl)-2-ethynyl-3-hydroxytetrahydrofuran-2-yl)methyl 2-(2-butoxyethoxy)acetate] | 2 | 11 |
| C#C[C@]1(COC(=O)CCCCCCCCC)O[C@@H](n2cnc3c(N)nc(F)nc32)C[C@@H]1OC(=O)OCC [Example 15, ((2R,3S,5R)-5-(6-amino-2-fluoro-9H-purin-9-yl)-3-((ethoxycarbonyl)oxy)-2-ethynyltetrahydrofuran-2-yl)methyl Decanoate] | 77 | 328 |
| C#C[C@]1(COC(=O)CCCC)O[C@@H](n2cnc3c(N)nc(F)nc32)C[C@@H]1OC(=O)CCCCCCCCCCCC [Example 19, (2R,3S,5R)-5-(6-amino-2-fluoro-9H-purin-9-yl)-2-ethynyl-2-((pentanoyloxy)methyl)tetrahydrofuran-3-yl Tridecanoate] | 18 | 87 |
| C#C[C@]1(COC(=O)CCCC)O[C@@H](n2cnc3c(NC(=O)CCCCCCCCCCCCC)nc(F)nc32)C[C@@H]1O [Example 27, ((2R,3S,5R)-2-ethynyl-5-(2-fluoro-6-tetradecanamido-9H-purin-9-yl)-3-hydroxytetrahydrofuran-2-yl)methyl Pentanoate] | 8 | 46 |

Reference: patent publication US12240853B2, “Compounds useful in HIV therapy” (GlaxoSmithKline Intellectual Property (No.2) Limited, priority 2019, dated 2025)
